Assay results published in patent US20120252729A1, “PTH-CONTAINING THERAPEUTIC/PROPHYLACTIC AGENT FOR OSTEOPOROSIS, CHARACTERIZED IN THAT PTH IS ADMINISTERED ONCE A WEEK IN A UNIT DOSE OF 100 TO 200 UNITS” (ASAHI KASEI PHARMA CORPORATION, priority 2009, published 2012).

Legend:
[1] = in vivo
Protocol: The serum calcium was measured at the start, after 12 weeks, after 24 weeks, after 48 weeks, and after 72 weeks. Serum calcium standard value: 8.4 to 10.4 mg/dL. The standard concomitant drug (610 mg of calcium, 400 IU of vitamin D3, and 30 mg of magnesium) was taken once a day after dinner from the time of consent to the end of the trial.

[2] = system: high-risk patients diagnosed with primary osteoporosis; experiment: Working Example 2: bone density of lumbar spine and femur by DXA; format: in vivo, human; settings: 200 units weekly; for Change in lumbar vertebral density (%), median: after 72 W
[3] = system: patients diagnosed with primary osteoporosis; experiment: Working Example 1: new vertebral fractures by x-ray (method of Genant et al.); format: in vivo, human
Protocol: Both the 5 and 100 unit groups were administered two tablets of a calcium agent (containing 500 mg of precipitated calcium carbonate [200 mg as calcium] per tablet) once a day.
The osteoporosis patients were classified as condition shown in Table 1 based on the bone fracture risk factors present, as in Non-patent Reference 13, and compared. High-risk patients were defined as having all three factors involving age, prevalent vertebral fractures, and bone density or bone atrophy; low-risk patients were defined as other than the above.

[4] = system: osteoporosis patients having normal renal function, mild or moderate renal dysfunction; settings: in vivo
From the text: The incidence of adverse events was studied after administering the test drug to the a group of osteoporosis patients having normal renal function, a group of osteoporosis patients having mild renal dysfunction, and a group of osteoporosis patients having moderate renal dysfunction.

[5] = high-risk patients, 5 units, after 26 W
[6] = high-risk patients, 5 units, after 52 W
[7] = high-risk patients, 5 units, after 78 W
[8] = high-risk patients, 5 units, after 104 W
[9] = high-risk patients, 5 units, after 130 W
[10] = high-risk patients, 100 units, after 26 W
[11] = high-risk patients, 100 units, after 52 W
[12] = high-risk patients, 100 units, after 78 W
[13] = high-risk patients, 100 units, after 104 W
[14] = high-risk patients, 100 units, after 130 W
[15] = low-risk patients, 5 units, after 26 W
[16] = low-risk patients, 5 units, after 52 W
[17] = low-risk patients, 5 units, after 78 W
[18] = low-risk patients, 5 units, after 104 W
[19] = low-risk patients, 5 units, after 130 W
[20] = low-risk patients, 100 units, after 26 W
[21] = low-risk patients, 100 units, after 52 W
[22] = low-risk patients, 100 units, after 78 W
[23] = low-risk patients, 100 units, after 104 W
[24] = low-risk patients, 100 units, after 130 W

For teriparatide acetate, the “Corrected serum calcium value after administration, maximum” value [1] was 11.6 mg/dL, the “Corrected serum calcium value, range of the average” value [1] was 9.3 to 9.6 mg/dL and the “Corrected serum calcium, Mean” value [1] was 9.5 mg/dL. For the same substance, the “Corrected serum calcium, Median” value [1] was 9.5 mg/dL, the “Manifestation of hypercalcemia or hypercalciuria” value [1] was “No manifestation of hypercalcemia or hypercalciuria was found” and the “Safety in terms of the serum calcium (corrected serum calcium vs control)” value [1] was “equivalent safety in terms of the serum calcium in all groups”. For the same substance, the “Change in lumbar vertebral density (%), median” value ([2]; mild impairment (≧50-<80)) was 6.6%, the “Change in lumbar vertebral density (%), median” value ([2]; normal (≧80)) was 8.0% and the “Change in lumbar vertebral density (%), mean” value ([2]; normal (≧80), final) was 7.5%. For the same substance, the “New vertebral fractures every 26 weeks: Incidence (%)” value [3, 5] was 9.5%, the “New vertebral fractures every 26 weeks: No. of fractures” value [3, 5] was 8 and the “New vertebral fractures every 26 weeks: No. with fractures” value [3, 5] was 6. The “New vertebral fractures every 26 weeks: Incidence (%)” value [3, 6] was 11.1%, the “New vertebral fractures every 26 weeks: No. of fractures” value [3, 6] was 9 and the “New vertebral fractures every 26 weeks: No. with fractures” value [3, 6] was 7. The “New vertebral fractures every 26 weeks: Incidence (%)” value [3, 7] was 7.0%, the “New vertebral fractures every 26 weeks: No. of fractures” value [3, 7] was 4 and the “New vertebral fractures every 26 weeks: No. with fractures” value [3, 7] was 4. The “New vertebral fractures every 26 weeks: Incidence (%)” value [3, 8] was 2.9%, the “New vertebral fractures every 26 weeks: No. of fractures” value [3, 8] was 1 and the “New vertebral fractures every 26 weeks: No. with fractures” value [3, 8] was 1. For the same substance, the “New vertebral fractures every 26 weeks: No. of fractures” value [3, 9] was 0, the “New vertebral fractures every 26 weeks: No. with fractures” value [3, 9] was 0 and the “New vertebral fractures every 26 weeks: Incidence (%)” value [3, 10] was 2.0%. The “New vertebral fractures every 26 weeks: No. of fractures” value [3, 10] was 1, the “New vertebral fractures every 26 weeks: No. with fractures” value [3, 10] was 1 and the “New vertebral fractures every 26 weeks: Incidence (%)” value [3, 11] was 2.0%. The “New vertebral fractures every 26 weeks: No. of fractures” value [3, 11] was 1, the “New vertebral fractures every 26 weeks: No. with fractures” value [3, 11] was 1 and the “New vertebral fractures every 26 weeks: Incidence (%)” value [3, 12] was 2.2%. The “New vertebral fractures every 26 weeks: No. of fractures” value [3, 12] was 1, the “New vertebral fractures every 26 weeks: No. with fractures” value [3, 12] was 1 and the “New vertebral fractures every 26 weeks: No. of fractures” value [3, 13] was 0. The “New vertebral fractures every 26 weeks: No. with fractures” value [3, 13] was 0, the “New vertebral fractures every 26 weeks: No. of fractures” value [3, 14] was 0 and the “New vertebral fractures every 26 weeks: No. with fractures” value [3, 14] was 0. The “New vertebral fractures every 26 weeks: No. of fractures” value [3, 15] was 0, the “New vertebral fractures every 26 weeks: No. with fractures” value [3, 15] was 0 and the “New vertebral fractures every 26 weeks: Incidence (%)” value [3, 16] was 4.8%. The “New vertebral fractures every 26 weeks: No. of fractures” value [3, 16] was 1, the “New vertebral fractures every 26 weeks: No. with fractures” value [3, 16] was 1 and the “New vertebral fractures every 26 weeks: No. of fractures” value [3, 17] was 0. The “New vertebral fractures every 26 weeks: No. with fractures” value [3, 17] was 0, the “New vertebral fractures every 26 weeks: No. of fractures” value [3, 18] was 0 and the “New vertebral fractures every 26 weeks: No. with fractures” value [3, 18] was 0. The “New vertebral fractures every 26 weeks: No. of fractures” value [3, 19] was 0, the “New vertebral fractures every 26 weeks: No. with fractures” value [3, 19] was 0 and the “New vertebral fractures every 26 weeks: Incidence (%)” value [3, 20] was 8.3%. For the same substance, the “New vertebral fractures every 26 weeks: No. of fractures” value [3, 20] was 2, the “New vertebral fractures every 26 weeks: No. with fractures” value [3, 20] was 1 and the “New vertebral fractures every 26 weeks: No. of fractures” value [3, 21] was 0. The “New vertebral fractures every 26 weeks: No. with fractures” value [3, 21] was 0, the “New vertebral fractures every 26 weeks: No. of fractures” value [3, 22] was 0 and the “New vertebral fractures every 26 weeks: No. with fractures” value [3, 22] was 0. For the same substance, the “New vertebral fractures every 26 weeks: No. of fractures” value [3, 23] was 0, the “New vertebral fractures every 26 weeks: No. with fractures” value [3, 23] was 0 and the “New vertebral fractures every 26 weeks: No. of fractures” value [3, 24] was 0. For the same substance, the “New vertebral fractures every 26 weeks: No. with fractures” value [3, 24] was 0 and the “Adverse events: point estimate of the difference (PTH200 group vs P group)” value [4] was 2.0.
